Measurements published in patent publication US12251465B2, “Dosage form comprising structured solid-solution framework of sparingly-soluble drug and method for manufacture thereof” (priority 2018, dated 2025).
Converted amounts (≈) assume the structure as drawn.

Assay: Solubility of drug in the dissolution fluid and excipient-fluid solutions (UV absorption)
Format: physicochemical
Conditions: 37° C.
Experimental: For determining the solubility of drug in the dissolution fluid, 1 mg ibuprofen particles were put in a UV cuvette. The cuvette was then filled with 2.5 ml of the dissolution fluid (0.1 M HCl in deionized water at 37° C.). The concentration of dissolved drug was monitored by UV absorption using a Perkin Elmer Lambda 1050 Spectrophotometer. Between measurements, the cuvette was flipped at a frequency of 0.5 Hz to stir the solution. The temperature of the solution in the cuvette was maintained at 37° C., during the experiment. When the drug concentration in the solution reached its equilibrium value the drug solubility was recorded.
The solubility of drug in excipient-dissolution fluid solutions was determined by immersing 1.5 mg of the ibuprofen particles and different amounts (1.5-200 mg) of excipient in 2.5 ml dissolution fluid. The excipient was either HPMC or a mixture of 67 wt % HPMC and 33 wt % polyoxyl stearate. The dissolution fluid was 0.1 M HCl in deionized water.

[1] = 1 mg ibuprofen particles in 2.5 ml stirred dissolution fluid

For `CC(C)Cc1ccc(C(C)C(=O)O)cc1` (stereo not drawn) [ibuprofen], the “concentration of dissolved drug at 3000 minutes (50 h)” value [1] was 40000 ng/mL, the “time to reach the solubility c0” value [1] was ≤ 15,000 minutes and the solubility (dissolution fluid (0.1 M HCl in deionized water), simulated gastric fluid, thermodynamic from solid, 0.1 M HCl in deionized water, no excipient, read-out: solubility of ibuprofen in the dissolution fluid, c0) was ~50 µg/mL (≈ 242 µM).
